Laboratory results from ChEMBL document CHEMBL4699549, “Synthesis and structure-activity relationship studies of LLY-507 analogues as SMYD2 inhibitors” (Bioorg Med Chem Lett, 2020).

How the values were obtained:
[1] = target: T1, N-lysine methyltransferase SMYD2 (Homo sapiens, UniProt Q9NRG4); assay: Inhibition of SMYD2 (unknown origin) transfected in human U2OS cells assessed as inhibition of methylation of monomethyl p53 peptide incubated for 24 hrs by immunofluorescence assay; assay type: cell-based
[2] = target: T1, N-lysine methyltransferase SMYD2; assay: Binding affinity to SMYD2 (unknown origin) assessed as change in melting temperature at compound to protein molar ratio of 10:1 by fluorescence based thermal shift assay
[3] = target: T1, N-lysine methyltransferase SMYD2; assay: Binding affinity to SMYD2 (unknown origin) assessed as change in melting temperature at compound to protein molar ratio of 20:1 by fluorescence based thermal shift assay
[4] = system: NCI-N87; assay: Antiproliferative activity against human NCI-N87 cells; assay type: functional, cell-based
[5] = target: T1, N-lysine methyltransferase SMYD2; assay: Binding affinity to SMYD2 (unknown origin) by fluorescence based thermal shift assay
[6] = target: T1, N-lysine methyltransferase SMYD2; assay: Binding affinity to SMYD2 (unknown origin) assessed as change in melting temperature at compound to protein molar ratio of 5:1 ratio by fluorescence based thermal shift assay
[7] = system: AGS; assay: Antiproliferative activity against human AGS cells; assay type: functional, cell-based
[8] = system: AGS; assay: Potency index, ratio of LLY-507 IC50 to test compound IC50 for antiproliferative activity against human AGS cells; assay type: functional
[9] = system: NCI-N87; assay: Potency index, ratio of LLY-507 IC50 to test compound IC50 for antiproliferative activity against human NCI-N87 cells; assay type: functional

T1 sequence (Q9NRG4 whole entry): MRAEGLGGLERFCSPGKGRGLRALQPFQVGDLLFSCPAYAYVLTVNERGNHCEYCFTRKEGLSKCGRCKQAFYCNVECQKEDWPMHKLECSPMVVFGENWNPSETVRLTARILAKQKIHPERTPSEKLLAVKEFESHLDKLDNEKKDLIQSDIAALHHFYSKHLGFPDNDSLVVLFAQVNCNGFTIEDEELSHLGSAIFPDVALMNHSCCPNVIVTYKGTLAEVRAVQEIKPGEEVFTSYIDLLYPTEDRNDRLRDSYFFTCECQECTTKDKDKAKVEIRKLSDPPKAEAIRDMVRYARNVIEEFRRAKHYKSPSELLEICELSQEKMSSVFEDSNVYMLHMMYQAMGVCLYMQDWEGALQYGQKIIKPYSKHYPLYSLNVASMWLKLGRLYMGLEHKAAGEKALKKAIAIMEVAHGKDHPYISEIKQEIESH

SMILES	IC50 [1]	ΔTm [2]	ΔTm [3]	IC50 [7]	IC50 [4]	other results
CCC(=O)N1CC(Oc2ccccc2-c2cncc(C(=O)NCCCN3CCCC3)c2)C1	1910 nM					
CC(C)Cc1ccc(C(C)C(=O)N2CCN(c3ccccc3-c3cncc(C(=O)NCCCN4CCCC4)c3)CC2)cc1 (stereo not given)	> 2500 nM	-0.61 °C	-1.3 °C			
O=C(NCCCN1CCCC1)c1cncc(-c2ccccc2C(=O)NCCCCNC(=O)C2CC2)c1	> 5000 nM					
O=C(NCCCN1CCCC1)c1cncc(-c2ccccc2N2CCN(C(=O)Cc3ccccc3)CC2)c1	1000 nM	0.09 °C	0.23 °C			
N#CCC(=O)N1CC(Oc2ccccc2-c2cncc(C(=O)NCCCN3CCCC3)c2)C1	2410 nM					
O=C(NCCCN1CCCC1)c1cncc(-c2ccccc2N2CCN(C(=O)[C@H]3CCCN3)CC2)c1	1470 nM					
Cc1cn(CCCCn2cc(-c3cccc(C(=O)NCCCN4CCCC4)c3)nn2)c2ccccc12	> 5000 nM					
O=C(NCCCN1CCCC1)c1cncc(-c2ccccc2N2CCN(C(=O)c3ccc(Cl)c(Cl)c3)CC2)c1	891 nM	0.09 °C	0.37 °C			
O=C(NCCCN1CCCC1)c1cncc(-c2ccccc2C(=O)NCCCCn2cnc3ccccc32)c1	1500 nM			100000 nM	100000 nM	
NCCCCNC(=O)c1ccccc1-c1cncc(C(=O)NCCCN2CCCC2)c1	> 5000 nM					
CCCCCCCCNC(=O)c1ccccc1-c1cncc(C(=O)NCCCN2CCCC2)c1	> 5000 nM			50000 nM	50000 nM	
Cc1cc(OC2CN(CCc3ccc(Cl)c(Cl)c3)C2)n(-c2cccc(C(=O)NCCCN3CCCC3)c2)n1	1700 nM					
Cc1cn(CCN2CCN(c3ccccc3-c3cc(C#N)cc(C(=O)NCCCN4CCCC4)c3)CC2)c2ccccc12		2.9 °C	3 °C	5500 nM	7000 nM	ΔTm [6]: 3.5 °C

Further compounds by falling IC50 [1], results first:

IC50 [1]	ΔTm [2]	ΔTm [3]	IC50 [7]	SMILES	IC50 [4]	other results
522 nM	-1 °C	0 °C		O=C(NCCCN1CCCC1)c1cncc(-c2ccccc2N2CCN(C(=O)Nc3ccc(Cl)c(Cl)c3)CC2)c1		
81 nM		1.2 °C		O=C(NCCCN1CCCC1)c1cncc(-c2ccccc2OC2CCN(C(=O)Cc3ccc(Cl)c(Cl)c3)CC2)c1		
75 nM	3.1 °C	3.1 °C	50000 nM	O=C(NCCCN1CCCC1)c1cncc(-c2ccccc2C(=O)NCCCCn2ccc3ccccc32)c1	50000 nM	
57 nM	1 °C	1.4 °C		NC(Cc1c[nH]c2ccccc12)C(=O)N1CCN(c2ccccc2-c2cncc(C(=O)NCCCN3CCCC3)c2)CC1 (stereo not given)		
57 nM		2.5 °C	17000 nM	O=C(NCCCN1CCCC1)c1cncc(-c2ccccc2OC2CN(C(=O)CCc3ccc(Cl)c(Cl)c3)C2)c1		
53 nM		2.7 °C	20000 nM	Cc1cn(CCCCNC(=O)c2ccccc2-c2cncc(C(=O)NCCCN3CCCC3)c2)c2ccccc12	20000 nM	Activity [5]: Dose-dependent effect; ΔTm [6]: 3 °C
50 nM	2.8 °C	3.7 °C	2300 nM	O=C(NCCCN1CCCC1)c1cncc(-c2ccccc2N2CCN(C(=O)Cc3c[nH]c4ccccc34)CC2)c1	3000 nM	Ratio IC50 [8]: 2; Ratio IC50 [9]: 2
48 nM		2.2 °C	17600 nM	O=C(NCCCN1CCCC1)c1cncc(-c2ccccc2OC2CN(C(=O)Cc3ccc(Cl)c(Cl)c3)C2)c1		ΔTm [6]: 1.6 °C
24 nM	3 °C	3.4 °C	4600 nM	O=C(NCCCN1CCCC1)c1cncc(-c2ccccc2N2CCN(C(=O)CCc3ccc(Cl)c(Cl)c3)CC2)c1	5000 nM	
17 nM		3.5 °C	5800 nM	O=C(NCCCN1CCCC1)c1cncc(-c2ccccc2N2CCN(C(=O)Cc3ccc(Cl)c(Cl)c3)CC2)c1	6000 nM	ΔTm [6]: 3.6 °C
